Source: patent US20120004188A1, “USE OF RANOLAZINE FOR TREATING PULMONARY HYPERTENSION” (Gilead Sciences, Inc., priority 2010, published 2012)
Read-outs that look alike come from different tables or passages of the source.

How the values were obtained:
[1] = test system: MCT-induced PAH and RV dysfunction; test: Monocrotaline (MCT)-induced chronic PAH and RV dysfunction model in rats; type: in vivo, Male Sprague-Dawley rats; settings: for RV hypertrophy, RV(milligrams)/LV(milligrams) / plasma BNP levels / decrease in RV ejection fraction: day 28; for RV hypertrophy, RV(milligrams)/LV(milligrams): MCT 0.55±0.04; for plasma BNP levels: MCT 590±106, control 170±90; for decrease in RV ejection fraction: MCT −47±7%; for pulmonary systolic pressure: MCT 84±7, control 29±1; for RV systolic pressure: MCT 86±7, control 26±1
Source text: As is discussed in detail hereinabove, ranolazine is an anti-anginal drug that inhibits the late sodium current (INa) in cardiomyocytes. Late INa is increased during conditions of ischemia and hypoxia, and causes intracellular Ca^2+ overload by increasing the amount of intracellular Na^+ available for exchange via the Na^+—Ca^2+ exchanger (NCX). […] Monocrotaline or MCT (a poisonous crystalline alkaloid found in a leguminous plant of the genus Crotalaria) induces progressive pulmonary arterial hypertension (PAH) in rats that results in RV hypertrophy, contractile dysfunction, and eventually RV failure. Both human PAH and MCT-induced PAH models are characterized by hypoxia and increased ROS production but the role of late INa in this model has not been investigated. Therefore, the present example evaluates the efficacy of RAN to prevent MCT-induced PAH and RV dysfunction. Male Sprague-Dawley rats were given a single injection of MCT (60 milligrams per kilogram, s.c.) at study inception and randomized into three groups; MCT, low dose RAN (0.25% weight of RAN over weight of chow), and high dose (0.5% weight of RAN over weight of chow) RAN. RAN was given in diet for 28 days mixed in standard rodent chow containing 0.25% or 0.5% RAN for low and high doses, respectively. These concentrations of RAN yielded plasma concentrations of 1-2 micromolar and 5-7 micromolar, respectively. A control group received a sub-cutaneous (s.c.) saline injection and was fed standard rodent chow. Pulmonary hemodynamics, RV function, and RV hypertrophy was assessed at endpoint (day 28 following MCT administration). Alpha-smooth muscle actin (α-SMA) staining on lung tissue sections were carried out to assess pulmonary vascular remodeling at day 28 as well.

[2] = Plasma concentration of RAN given in diet to rats; type: in vivo; settings: male, Sprague-Dawley, oral, rat, read-out: plasma concentrations
Source text: Male Sprague-Dawley rats were given a single injection of MCT (60 milligrams per kilogram, s.c.) at study inception and randomized into three groups; MCT, low dose RAN (0.25% weight of RAN over weight of chow), and high dose (0.5% weight of RAN over weight of chow) RAN. RAN was given in diet for 28 days mixed in standard rodent chow containing 0.25% or 0.5% RAN for low and high doses, respectively. These concentrations of RAN yielded plasma concentrations of 1-2 micromolar and 5-7 micromolar, respectively. A control group received a sub-cutaneous (s.c.) saline injection and was fed standard rodent chow. Pulmonary hemodynamics, RV function, and RV hypertrophy was assessed at endpoint (day 28 following MCT administration). Alpha-smooth muscle actin (α-SMA) staining on lung tissue sections were carried out to assess pulmonary vascular remodeling at day 28 as well.

[3] = test system: right ventricular remodeling following acute myocardial infarction; test: Murine model of large anterior wall acute myocardial infarction (permanent ligation of the left coronary artery); type: in vivo, Male Imprinting Control Region (ICR) mice; settings: 30 mg/kg i.p. every 6 hours for 7 days
Protocol: Male Imprinting Control Region (ICR) mice underwent permanent coronary artery ligation of the left coronary artery and treated with vehicle (saline) or ranolazine 30 mg/kg i.p. every 6 hours (N=10-12 per group) for 7 days starting at the time of ligation. Infarct size was measured early using Masson's trichrome staining. Transthoracic echocardiography was performed prior to surgery and 7 days later to measure left ventricular and right ventricular dimensions and function.

[4] = test system: pulmonary hypertension or PAH; test: Right ventricular function, exercise capacity and quality of life in patients with pulmonary hypertension or PAH; type: in vivo; settings: contemplated result
Source text: To ascertain the improvement in right ventricular function in patients suffering from pulmonary hypertension or pulmonary arterial hypertension (PAH), the following parameters are examined: • Exercise capacity and quality of life • RV subendocardial perfusion using adenosine cardiac MRI studies • Exercise-induced changes in RV function determined non-invasively using comprehensive Doppler and tissue Doppler echocardiography along with determination of right ventricular—pulmonary vascular coupling and pulmonary vascular impedance spectra • RV contractility and comprehensive pressure-volume analysis using invasive hemodynamics, 2D and 3D echocardiography, and cardiac MRI Note that the aforementioned endpoints use a combination of invasive and non-invasive techniques. Echocardiography techniques are best suited for exercise studies. Echocardiographic RV volume data can be normalized to MRI RV volume data, and echocardiographic estimation of RV pressures can be normalized to invasive RV pressure data, thereby increasing the accuracy of echocardiographic analysis of RV structure and function.

[5] = high dose RAN (0.5% in chow), day 28 after MCT
[6] = echocardiography at day 7, versus vehicle-treated mice

COc1ccccc1OCC(O)CN1CCN(CC(=O)Nc2c(C)cccc2C)CC1 (racemic) [ranolazine, ±-N-(2,6-dimethylphenyl)-4-[2-hydroxy-3-(2-methoxyphenoxy)-propyl]-1-piperazineacetamide]
MCT induced changes (PAH and RV dysfunction), overall ([1]; 0.25% and 0.5% RAN in chow, 28 days): significantly and dose-dependently attenuated | RV hypertrophy, RV(milligrams)/LV(milligrams) ([1]; high dose RAN (0.5% in chow)): 0.32±0.03 | plasma BNP levels ([1]; high dose RAN (0.5% in chow)): 60±20 picograms/milliliter | decrease in RV ejection fraction ([1]; high dose RAN (0.5% in chow)): −10±8% | pulmonary systolic pressure [1, 5]: 40±4 millimeters Hg | RV systolic pressure [1, 5]: 39±4 millimeters Hg | RV hypertrophy, RV(milligrams)/LV(milligrams) ([1]; low dose RAN (0.25% in chow)): 0.4±0.03 | plasma BNP levels ([1]; low dose RAN (0.25% in chow)): 180±30 picograms/milliliter | decrease in RV ejection fraction ([1]; low dose RAN (0.25% in chow)): −17±11% | pulmonary systolic pressure ([1]; low dose RAN (0.25% in chow), day 28 after MCT 60 mg/kg s.c.): 59±5 millimeters Hg | RV systolic pressure ([1]; low dose RAN (0.25% in chow), day 28 after MCT): 58±5 millimeters Hg | pulmonary vascular remodeling in intra-acinar arteries (ratio of vessel wall thickness to lumen diameter) ([1]; α-SMA staining of lung sections, day 28, compared to MCT animals): significantly reduced remodeling | concentration at 28 days ([2]; 0.25 % weight of RAN over weight of chow, low dose RAN, 0.25% in chow): 1 to 2 µM | concentration at 28 days ([2]; 0.5 % weight of RAN over weight of chow, high dose RAN, 0.5% in chow): 5 to 7 µM | infarct size ([3]; Masson's trichrome staining): absence of any measurable effects | LV function and dimension ([3]; echocardiography at day 7): absence of any measurable effects | RV dimension (RV diastolic and systolic areas) [3, 6]: significant preservation | RV function (TAPSE and RV fractional area change) [3, 6]: significant preservation | exercise capacity and quality of life [4]: improve exercise capacity and quality of life | pain associated with pulmonary hypertension or PAH [4]: ameliorates pain
